Experimental findings from patent publication US6547971B2 (priority 2000, dated 2003) are described below.

This test has as its system spores of Bacillus cereus. The class given is cell-based.

Several values for one entry are separate records, joined by “and”; a condition that tells them apart may be missing. Equal entries are not always repeated.

Consider `C[C@H](N)C(=O)O` [L-alanine], for which the CFU is 72 and 85. The “induction of spore germination” value (control samples A and B) is “did induce germination”.
